Assay results published in patent US7655454B1, “Bacteriological culture medium for Campylobacteriaceae species” (priority 2005, dated 2010).
Read-outs that look alike come from different tables or passages of the source.

Legend:
Assay type in all cases: cell-based
[1] = tested on: Campylobacter coli ATCC 33559; settings: P<0.05
[2] = tested on: Campylobacter jejuni subsp. jejuni ATCC 33560
[3] = tested on: Campylobacter jejuni PPMQ2b; settings: P<0.05
[4] = tested on: Campylobacter jejuni PPMQ3b; settings: P<0.05
[5] = approximately 30, 40, or 50 mM acid
[6] = approximately 20, 30, 40, or 50 mM acid, P<0.05
[7] = approximately 20, 30, 40, and 50 mM acid
[8] = any of the concentrations tested

| Structure (SMILES) | absorbance compared with cultures in non-supplemented media [1, 5] | absorbance compared with cultures in non-supplemented media [2, 6] | absorbance compared with cultures grown in non-supplemented media ([4]; approximately 20 mM acid) | absorbance compared with cultures in non-supplemented media [1, 7] | acid concentration required to produce cultures with higher absorbance than in non-supplemented media [3] | absorbance compared with cultures grown in non-supplemented media [3, 8] | other results |
| --- | --- | --- | --- | --- | --- | --- | --- |
| CC(O)C(=O)O (racemic) [Lactic, DL-lactic acid] | significantly greater | significantly higher | significantly greater | – | – | – | absorbance compared with cultures grown in non-supplemented media ([3]; approximately 20, 30, 40, or 50 mM acid): significantly greater |
| O=C(O)CC(O)C(=O)O (racemic) [Malic, DL-malic acid] | – | significantly higher | – | significantly higher | approximately 40 mM | – | acid concentration required to produce cultures with significantly higher absorbances than in non-supplemented media [4]: approximately 20 mM |
| O=C(O)CC(O)(CC(=O)O)C(=O)O [Citric, citric acid] | – | – | small but significantly higher | – | – | not significantly different | absorbance compared with isolates grown in non-supplemented media ([1]; approximately 50 mM acid): not significantly different; growth compared with non-supplemented media ([1]; approximately 30 or 40 mM acid): significantly more growth; growth compared with non-supplemented media [2]: significantly more growth; absorbance compared with isolates grown in non-supplemented media ([2]; approximately 50 mM acid, P<0.05): not significantly different |
| O=C(O)/C=C/C(=O)O [Fumaric, fumaric acid] | – | significantly higher | significantly higher | significantly higher | approximately 30 mM | – | – |
| O=C(O)CCC(=O)O [Succinic, succinic acid] | significantly higher | – | – | – | – | none of the concentrations of succinic acid produced significantly higher absorbances | absorbance compared with cultures in non-supplemented media ([2]; approximately 30, 40, or 50 mM acid, P<0.05): significantly higher; absorbance compared with cultures grown in non-supplemented media ([4]; approximately 40 and 50 mM acid): significantly higher |
